Laboratory results as given in paper PMC7178524, “Comparative Pharmacokinetic Profiles of Puerarin in Rat Plasma by UHPLC-MS/MS after Oral Administration of Pueraria lobata Extract and Pure Puerarin” (Journal of Analytical Methods in Chemistry, 2020).

Assays:
[1] = Pharmacokinetics of PUR in rat plasma after single oral administration, UHPLC-MS/MS; type: in vivo, male Wistar rats
Method: Male Wistar rats (250−270 g) were purchased from the SPF (Beijing) Biotechnology Co., Ltd. (Beijing, China). The rats were then housed in an animal room to adapt to the environment for a week at standard temperature (23−28°C), humidity (50−65%), free diet, and tap water. Rats were fasted for 12 h before pharmacokinetic experiments and allowed free access to water and sugar during sample collection. Both PUR and PLE were dispersed in a 0.5% carboxymethyl cellulose solution and then sonicated to obtain a homogeneous suspension. A whole blood sample was collected from the infraorbital vein and immediately centrifuged at 3,500 rpm for 10 minutes at 4°C to obtain plasma. Plasma was stored at −20°C for later analysis. The experimental protocol was approved by the Animal Experiment Ethics Review Committee of Jiangsu Vocational College of Medicine.
Chromatographic separation was performed using a Waters Acquity UHPLC system with an Acquity HSS T3 column (1.8 μm, 2.1 × 50 mm, Waters, Milford, MA). Mobile phase A consists of 0.1% aqueous formic acid solution, and mobile phase B consists of 0.1% formic acid acetonitrile. The gradient elution was as follows: 0 to 0.5 min, a linear gradient from 10 to 15% B; 0.5 to 2 min, 15 to 40% B; 2 to 4 min, 40 to 80% B; 4.1 to 5 min, 80 to 99% B; 5.1 to 7 min, a linear gradient back to 10% B. The flow rate was 0.3 mL/min. The column temperature was maintained at 40 °C, and the sample storage compartment was maintained at 4°C. Under these conditions, PUR and berberine hydrochloride were eluted at 2.0 and 3.2 minutes, respectively.
Mass spectrometric detection was performed on a Waters TQD tandem mass spectrometer equipped with an electrospray ionization (ESI) source. The mass spectrometer was operated in multiple reaction monitoring (MRM) positive-ion mode and was quantified using the following transitions: m/z 417.1 > 297.0 for PUR and m/z 336.0 > 320.0 for berberine hydrochloride, and the mass fragment spectrum of PUR and berberine hydrochloride is shown in Figure 2. For all transitions, the cone voltage of 35 V and a collision energy of 30 eV for both PUR and berberine hydrochloride were used, as shown in Table 1. The capillary voltage was set at 2.8 kV, and the source temperature was maintained at 500°C with a gas flow rate of 850 L/h. Argon is used as the collision gas. The cone gas flow was set at 50 L/h. Data acquisition were performed with MassLynx^TM software version 4.1, and quantitation was performed using TargetLynx^TM (Waters, Milford, MA, USA).
Rat plasma sample (100 μL) and IS solution (20 μL, 100 ng/mL) were added to a 1.5 mL Eppendorf tube and vortex-mixed for 30 s, followed by adding 500 μL of acetonitrile to precipitate protein. The mixture was then vortex-mixed for 2 min and centrifuged at 10,000 rpm for 10 min. The supernatant was evaporated to dryness under a stream of nitrogen gas. The obtained residue was reconstituted with methanol-water (80 : 20, v/v), then vortex-mixed for 3min and centrifuged at 13,000 rpm for 10 min. Finally, a 2 μL sample of the supernatant was injected into the UHPLC-MS/MS system for analysis.
The validated method was applied to determine the plasma concentration of PUR in rats after single oral administration of PLE at a dose of 763 mg/kg (equivalent to 100.0 mg/kg of PUR, 1 mL/100g BW) or administration of PUR at a dose of 100 mg/kg (1 mL/100g BW). Twelve male Wistar rats were randomly divided into two groups of six rats each and fasted for 12 h before the experiment. The whole blood samples were collected in heparinized tubes through the suborbital vein of rat at 0.25, 0.5, 0.75, 1, 1.5, 2, 3, 4, 6, 8, 12, 24, 36, and 48 h after gavage administration of drugs. The blood samples were immediately centrifuged at 3,500 rpm for 10 min to obtain plasma. Plasma was stored at −20°C until analysis. […]

[2] = Stability of PUR in rat plasma (QC samples, four storage conditions); type: in vitro ADME; conditions: for Stability (RE, %) Postextraction: extracted rat plasma sample, auto sampler 4°C for 24 h; for Stability (RE, %) Postextraction / Stability (RE, %) 23°C–28°C/24 h / Stability (RE, %) −20°C/30 day / Stability (RE, %) Freeze-thaw (3 cycles): n = 3; for Stability (RE, %) 23°C–28°C/24 h / Stability (RE, %) −20°C/30 day / Stability (RE, %) Freeze-thaw (3 cycles): rat plasma; for Stability (RE, %) Freeze-thaw (3 cycles): −20°C to 25°C
Method: The stock solutions of PUR at a concentration of 200 μg/mL were prepared with methanol. A series of working solutions (4000, 1000, 400, 200, 100, and 40 ng/mL) were then prepared by diluting the stock solution with methanol. A 100 μg/mL IS stock solution was also prepared with methanol. A working solution of IS was prepared at a concentration of 100 ng/mL by diluting the stock solution with methanol. A standard calibration curve was prepared by adding 20 μL of the abovementioned PUR working solution and 20 μL of the IS working solution to 100 μL of blank plasma. The final plasma concentrations of PUR were in the concentration ranges of 800, 200, 80, 40, 20, and 8 ng/mL. QC samples of low, medium, and high concentrations (8, 80, and 720 ng/mL) of PUR were also prepared following the same procedure as described above. All solutions were kept at 4°C until use.
The stability of the PUR in rat plasma was investigated by analyzing QC samples under four different storage conditions, including three freeze-thaw cycles, room temperature 23−28°C for 24 h, −20°C for 30 days, and postextraction stability after the extracted samples being stored in the auto sampler at the temperature 4°C for 24 h. If the accuracy deviation was within ± 15%, the PUR was considered stable.

P-gp = conditions: after added verapamil (P-gp inhibitor); ref "Studies have found", no number given; cited from earlier work
MRP2 = conditions: after added probenecid (MRP2 inhibitor); ref "Studies have found", no number given; cited from earlier work
[3] = parameters: method as in PMID 29099639, PMID 29790819; conditions: coadministered with PUR, compared with the control group; cited from earlier work
[4] = male, Wistar, PUR in rat plasma, oral PUR 100 mg/kg, n = 6, mean ± SD

For `O=c1c(-c2ccc(O)cc2)coc2c([C@@H]3O[C@H](CO)[C@@H](O)[C@H](O)[C@H]3O)c(O)ccc12` [PUR, daidzein-8-C-glucoside], the AUC(0-inf) [1, 4] was 220 ± 64.4 ng·h/mL, the AUC(0-t) [1, 4] was 213 ± 61.9 ng·h/mL and the Tmax [1, 4] was 1.46 ± 1.08 h. For the same compound, the half-life [1, 4] was 1.6 ± 0.38 h, the CL/F ([1]; male, Wistar, PUR in rat plasma, oral PUR 100 mg/kg, n = 6, mean ± SD, read-out: CLz/F (converted)) was 509 L/h/kg and the MRT last ([1]; male, Wistar, PUR in rat plasma, oral PUR 100 mg/kg, n = 6, mean ± SD, read-out: MRT 0-t) was 2.22 ± 0.46 h. For the same compound, the Vd/F ([1]; male, Wistar, PUR in rat plasma, oral PUR 100 mg/kg, n = 6, mean ± SD, read-out: Vz/F) was 1200 ± 403 L/kg, the Cmax ([1]; male, Wistar, rat plasma, oral puerarin 100 mg/kg, abstract, read-out: maximum concentration (Cmax) of puerarin) was 102 ± 41.8 ng/mL and the “shape of plasma concentration-time curve of PUR” value ([1]; oral pure PUR 100 mg/kg, rats) was “no double-peak phenomenon”. For the same compound, the “Stability (RE, %) Postextraction” value ([2]; 8.0 ng/mL) was −7.7%, the “Stability (RE, %) Postextraction” value ([2]; 80.0 ng/mL) was −6.3% and the “Stability (RE, %) Postextraction” value ([2]; 720.0 ng/mL) was 5.9%. For the same compound, the “Stability (RE, %) 23°C–28°C/24 h” value ([2]; 8.0 ng/mL) was 11.5%, the “Stability (RE, %) −20°C/30 day” value ([2]; 8.0 ng/mL) was 11.4% and the “Stability (RE, %) Freeze-thaw (3 cycles)” value ([2]; 8.0 ng/mL) was 9.3%. The “Stability (RE, %) 23°C–28°C/24 h” value ([2]; 80.0 ng/mL) was 6.5%, the “Stability (RE, %) −20°C/30 day” value ([2]; 80.0 ng/mL) was 6.2% and the “Stability (RE, %) Freeze-thaw (3 cycles)” value ([2]; 80.0 ng/mL) was 5.6%. For the same compound, the “Stability (RE, %) 23°C–28°C/24 h” value ([2]; 720.0 ng/mL) was 8.7%, the “Stability (RE, %) −20°C/30 day” value ([2]; 720.0 ng/mL) was −4.7% and the “Stability (RE, %) Freeze-thaw (3 cycles)” value ([2]; 720.0 ng/mL) was −5.1%. For the same compound, the “stability in rat plasma under four tested conditions” value ([2]; three freeze/thaw cycles, −20°C for 30 days, 23°C to 28°C for 24 h, postextraction 4°C for 24 h, stable if deviation within ± 15%) was “stable”, the “increase of intestinal absorption of PUR” value (P-gp) was 2.7 times and the “increase of intestinal absorption of PUR” value (MRP2) was 2.3 times.

In the case of `CC(C)(O)[C@@H]1CC[C@](C)([C@H]2[C@@H](O)C[C@@]3(C)[C@@H]4C[C@H](O[C@@H]5O[C@H](CO)[C@@H](O)[C@H](O)[C@H]5O)[C@H]5C(C)(C)[C@@H](O[C@@H]6OC[C@@H](O)[C@H](O)[C@H]6O)CC[C@@]56C[C@@]46CC[C@]23C)O1` [astragaloside IV], the “effect on Tmax, Cmax, and AUC0-t of PUR” value [3] is listed as “significantly reduce”.

For `CC1(C)[C@@H](O[C@H]2O[C@H](C(=O)O)[C@@H](O)[C@H](O)[C@H]2O[C@@H]2O[C@H](C(=O)O)[C@@H](O)[C@H](O)[C@H]2O)CC[C@]2(C)[C@H]3C(=O)C=C4[C@@H]5C[C@@](C)(C(=O)O)CC[C@]5(C)CC[C@@]4(C)[C@]3(C)CC[C@@H]12` [glycyrrhizin], the “effect on Tmax, Cmax, and AUC0-t of PUR” value [3] is given as “significantly reduce”.
